In brackets after ≈: the same amount, converted by molar mass. Like-named read-outs stand apart in the source and are kept apart here.

Series [1] deals with HT-29 (human colon adenocarcinoma). Nature of the series: Growth inhibition of tumor cell line HT-29 (Table 1). The class given is cell-based. As to conditions: for IC50: Homo sapiens, HT-29, 144 h, read-out: IC50, concentration inhibiting 50% of the growth of HT-29.
Series [2] relates to A-549 (human lung adenocarcinoma). Put plainly: Growth inhibition of tumor cell line A-549 (Table 1). In kind it is cell-based. The following applies: for IC50: Homo sapiens, A549, 144 h, read-out: IC50, concentration inhibiting 50% of the growth of A-549.
The next series relates to P-388 (murine leukemia). Nature of the series: Growth inhibition of tumor cell line P-388 (Table 1). In kind it is cell-based. As to conditions: for IC50: Mus musculus, P388, 72 h, read-out: IC50, concentration inhibiting 50% of the growth of P-388.
Series [3] deals with KB-16 (human nasopharyngeal carcinoma). Nature of the series: Growth inhibition of tumor cell line KB-16 (Table 1). In kind it is cell-based. As to conditions: for IC50: Homo sapiens, KB16, 72 h, read-out: IC50, concentration inhibiting 50% of the growth of KB-16.
In a further series the test system is murine P-388 cells. As to conditions: Sakai et al., J Am Chem Soc 1986; cited from earlier work.
The mark [4] stands for this setting: 6 day drug exposure, columns A/B = scaffold type.
Setting [5] is: 3 day drug exposure, columns A/B = scaffold type.

On to `COc1ccc(C2=NCCc3c2[nH]c2ccccc32)c(OC)c1` [Compound 22, 1-(2′,4′-Dimethoxyphenyl)-3,4-dihydro-β-carboline], for which the IC50 in series [1] (setting [4]) came out at 0.5 µg/mL (≈ 1.63 µM); in series [2] (setting [4]) it was 0.5 µg/mL (≈ 1.63 µM); in the series with P-388 (murine leukemia) (setting [5]), 0.6 µg/mL (≈ 1.96 µM); in series [3] (setting [5]) it was 2.7 µg/mL (≈ 8.81 µM).
Take `COc1ccc(OC)c(C2=NCCc3c2[nH]c2ccccc32)c1` [Compound 24, 1-(2′,5′-Dimethoxyphenyl)-3,4-dihydro-β-carboline]: the IC50 was found to be 0.4 µg/mL (≈ 1.31 µM) in series [1] (setting [4]), 0.2 µg/mL (≈ 0.653 µM) in series [2] (setting [4]), 1.1 µg/mL (≈ 3.59 µM) with P-388 (murine leukemia) (setting [5]) and 0.7 µg/mL (≈ 2.28 µM) in series [3] (setting [5]).
Taken in the same sequence, the figures for `COc1cc(C2=NCCc3c2[nH]c2ccccc32)cc(OC)c1OC` [Compound 26, 1-(3′,4′,5′-Trimethoxyphenyl)-3,4-dihydro-β-carboline] were 0.7 µg/mL (≈ 2.08 µM), 0.5 µg/mL (≈ 1.49 µM), 1.2 µg/mL (≈ 3.57 µM) and 1.4 µg/mL (≈ 4.16 µM).
Taken in the same sequence, the figures for `COc1cc(OC)cc(C2NCCc3c2[nH]c2ccccc32)c1` (stereo not drawn) [Compound 12, 1-(3′,5′-Dimethoxyphenyl)-1,2,3,4-tetrahydro-β-carboline] were 0.4 µg/mL (≈ 1.3 µM), 0.6 µg/mL (≈ 1.95 µM), 0.2 µg/mL (≈ 0.649 µM) and 1.4 µg/mL (≈ 4.54 µM).
For the compound `Clc1ccc(C2NCCc3c2[nH]c2ccccc32)cc1` (stereo not drawn) [Compound 4, 1-(4′-Chlorophenyl)-1,2,3,4-tetrahydro-β-carboline], the IC50 in series [1] (setting [4]) stood at 0.9 µg/mL (≈ 3.18 µM); in series [2] (setting [4]) it was 0.6 µg/mL (≈ 2.12 µM); in the series with P-388 (murine leukemia) (setting [5]), 0.2 µg/mL (≈ 0.707 µM); in series [3] (setting [5]), 0.7 µg/mL (≈ 2.48 µM).
Taken in the same sequence, the figures for `CCN(CC)c1ccc(C2=NCCc3c2[nH]c2ccccc32)cc1` [Compound 21, 1-(4′-Diethylaminophenyl)-3,4-dihydro-β-carboline] were 1.3 µg/mL (≈ 4.1 µM), 1.8 µg/mL (≈ 5.67 µM), 0.7 µg/mL (≈ 2.21 µM) and 0.3 µg/mL (≈ 0.945 µM).
Turning to `CCn1c2ccccc2c2cc(C3NCCc4c3[nH]c3ccccc43)ccc21` (stereo not drawn) [Compound 16, 1-(9′-Ethyl-3′-carbazole)-1,2,3,4-tetrahydro-β-carboline], in series [1] (setting [4]), the “IC50, concentration inhibiting 50% of the growth of HT-29” value was 0.5 µg/mL. For the same compound, in series [2] (setting [4]), the “IC50, concentration inhibiting 50% of the growth of A-549” value is 0.8 µg/mL. The “IC50, concentration inhibiting 50% of the growth of P-388” value in the series on P-388 (murine leukemia) (setting [5]) came out at 0.7 µg/mL. In series [3] (setting [5]), the “IC50, concentration inhibiting 50% of the growth of KB-16” value came out at 0.8 µg/mL.
As to `CC(=O)O[C@H]1C(=O)[C@@]2(C)[C@H]([C@H](OC(=O)c3ccccc3)[C@]3(O)C[C@H](OC(=O)[C@H](O)[C@@H](NC(=O)c4ccccc4)c4ccccc4)C(C)=C1C3(C)C)[C@]1(OC(C)=O)CO[C@@H]1C[C@@H]2O` [Compound 30, paclitaxel, reference compound], the IC50 (in series [1] (setting [4]); in series [2] (setting [4]); in the series with P-388 (murine leukemia) (setting [5]); in series [3] (setting [5])) was below 0.001 µg/mL each time.
For `COc1ccc(C2=NCCc3c2[nH]c2ccccc32)cc1OC` [Compound 23, 1-(3′,4′-Dimethoxyphenyl)-3,4-dihydro-β-carboline], the IC50 turned out to be 2.7 µg/mL (≈ 8.81 µM) in series [1] (setting [4]), 12 µg/mL (≈ 39.2 µM) in series [2] (setting [4]), 2.7 µg/mL (≈ 8.81 µM) in the series with P-388 (murine leukemia) (setting [5]) and 15 µg/mL (≈ 49 µM) in series [3] (setting [5]).
As to `COc1cc(C2NCCc3c2[nH]c2ccccc32)cc(OC)c1OC` (stereo not drawn) [Compound 13, 1-(3′,4′,5′-Trimethoxyphenyl)-1,2,3,4-tetrahydro-β-carboline], the IC50 was 1.6 µg/mL (≈ 4.73 µM) in series [1] (setting [4]), 2 µg/mL (≈ 5.91 µM) in series [2] (setting [4]), 1.2 µg/mL (≈ 3.55 µM) in the series with P-388 (murine leukemia) (setting [5]) and 8.3 µg/mL (≈ 24.5 µM) in series [3] (setting [5]).
For the compound `O[C@]12C=C(c3nccc4c3[nH]c3ccccc34)[C@@H]3CCN(CCCC/C=C\CC1)C[C@@]31C[C@@H]3/C=C\CCCCN3[C@@H]12` [Compound 3, manzamine A, reference compound], the IC50 in series [1] is 0.1 µg/mL (≈ 0.182 µM); in series [2], 0.03 µg/mL (≈ 0.0547 µM); in the series with P-388 (murine leukemia) it was 0.07 µg/mL (≈ 0.128 µM); in series [3], below 0.001 µg/mL. In addition, in the series with murine P-388 cells, the “cytotoxicity against murine P-388 cells” value is 0.07 µg/mL.
For `c1ccc2c(c1)Cc1cc(C3NCCc4c3[nH]c3ccccc43)ccc1-2` (stereo not drawn) [Compound 15, 1-(2′-Fluorenyl)-1,2,3,4-tetrahydro-β-carboline], the “IC50, concentration inhibiting 50% of the growth of HT-29” value in series [1] (setting [4]) was determined as 0.5 µg/mL. In series [2] (setting [4]), the “IC50, concentration inhibiting 50% of the growth of A-549” value amounted to 0.6 µg/mL. Further, the “IC50, concentration inhibiting 50% of the growth of P-388” value in the series on P-388 (murine leukemia) (setting [5]) came to 0.1 µg/mL. Besides, in series [3] (setting [5]), the “IC50, concentration inhibiting 50% of the growth of KB-16” value worked out at 0.4 µg/mL.
Consider `O=[N+]([O-])c1ccc(C2NCCc3c2[nH]c2ccccc32)cc1` (stereo not drawn) [Compound 6, 1-(4′-Nitrophenyl)-1,2,3,4-tetrahydro-β-carboline], for which the IC50 is 1.5 µg/mL (≈ 5.11 µM) in series [1] (setting [4]), 0.9 µg/mL (≈ 3.07 µM) in series [2] (setting [4]), 0.8 µg/mL (≈ 2.73 µM) in the series on P-388 (murine leukemia) (setting [5]) and 1.1 µg/mL (≈ 3.75 µM) in series [3] (setting [5]).
The matching figures for `CN(C)c1ccc(C2=NCCc3c2[nH]c2ccccc32)cc1` [Compound 20, 1-(4′-Dimethylaminophenyl)-3,4-dihydro-β-carboline]: 3 µg/mL (≈ 10.4 µM), 50 µg/mL (≈ 173 µM), 2.9 µg/mL (≈ 10 µM) and 4.8 µg/mL (≈ 16.6 µM).
Taken in the same sequence, the figures for `COc1cc(OC)cc(C2=NCCc3c2[nH]c2ccccc32)c1` [Compound 25, 1-(3′,5′-Dimethoxyphenyl)-3,4-dihydro-β-carboline] were 0.6 µg/mL (≈ 1.96 µM), 0.6 µg/mL (≈ 1.96 µM), 0.4 µg/mL (≈ 1.31 µM) and 1 µg/mL (≈ 3.26 µM).
As for `CCN(CC)c1ccc(C2NCCc3c2[nH]c2ccccc32)cc1` (stereo not drawn) [Compound 8, 1-(4′-N-Diethylaminophenyl)-1,2,3,4-tetrahydro-β-carboline], the “IC50, concentration inhibiting 50% of the growth of HT-29” value in series [1] (setting [4]) was determined as 1.1 µg/mL. Moreover, the “IC50, concentration inhibiting 50% of the growth of A-549” value in series [2] (setting [4]) was found to be 1.1 µg/mL. For the same compound, the “IC50, concentration inhibiting 50% of the growth of P-388” value in the series with P-388 (murine leukemia) (setting [5]) turned out to be 0.07 µg/mL. For the same compound, the “IC50, concentration inhibiting 50% of the growth of KB-16” value in series [3] (setting [5]) was found to be 0.2 µg/mL.
Turning to `CN(C)c1ccc(C2NCCc3c2[nH]c2ccccc32)cc1` (stereo not drawn) [Compound 7, 1-(4′-Dimethylaminophenyl)-1,2,3,4-tetrahydro-β-carboline], the IC50 was found to be 0.7 µg/mL (≈ 2.4 µM) in series [1] (setting [4]), 1.6 µg/mL (≈ 5.49 µM) in series [2] (setting [4]), 2.2 µg/mL (≈ 7.55 µM) with P-388 (murine leukemia) (setting [5]) and 1.7 µg/mL (≈ 5.83 µM) in series [3] (setting [5]).
Turning to `COc1ccc(OC)c(C2NCCc3c2[nH]c2ccccc32)c1` (stereo not drawn) [Compound 11, 1-(2′,5′-Dimethoxyphenyl)-1,2,3,4-tetrahydro-β-carboline], the IC50 in series [1] (setting [4]) is 2.2 µg/mL (≈ 7.13 µM); in series [2] (setting [4]), 2 µg/mL (≈ 6.49 µM); with P-388 (murine leukemia) (setting [5]) it was 2.6 µg/mL (≈ 8.43 µM); in series [3] (setting [5]), 3.7 µg/mL (≈ 12 µM).
Take `O=[N+]([O-])c1cc(C2NCCc3c2[nH]c2ccccc32)cc2c1OCO2` (stereo not drawn) [Compound 14, 1-(3′-Nitroz4′-Benzo-1″,3″-dioxole)-1,2,3,4-tetrahydro-β-carboline]: the “IC50, concentration inhibiting 50% of the growth of HT-29” value in series [1] (setting [4]) was 1.4 µg/mL. The “IC50, concentration inhibiting 50% of the growth of A-549” value in series [2] (setting [4]) is 1.7 µg/mL. Further, the “IC50, concentration inhibiting 50% of the growth of P-388” value with P-388 (murine leukemia) (setting [5]) was determined as 0.3 µg/mL. The “IC50, concentration inhibiting 50% of the growth of KB-16” value in series [3] (setting [5]) stood at 6.0 µg/mL.
Taken in the same sequence, the figures for “1-(3′-Nitro-4′-Benzo-1″,3″-dioxole)-3,4-dihydro-β-carboline [Compound 27]” were 1.0 µg/mL, 0.6 µg/mL, 0.3 µg/mL and 0.8 µg/mL.
On to `COc1ccc(C2NCCc3c2[nH]c2ccccc32)c(OC)c1` (stereo not drawn) [Compound 9, 1-(2′,4′-Dimethoxyphenyl)-1,2,3,4-tetrahydro-β-carboline], for which the IC50 in series [1] (setting [4]) was found to be 1.1 µg/mL (≈ 3.57 µM); in series [2] (setting [4]), 1.1 µg/mL (≈ 3.57 µM); with P-388 (murine leukemia) (setting [5]), 0.6 µg/mL (≈ 1.95 µM); in series [3] (setting [5]) it was 0.7 µg/mL (≈ 2.27 µM).
For the compound `Brc1ccc(C2NCCc3c2[nH]c2ccccc32)cc1` (stereo not drawn) [Compound 5, 1-(4′-Bromophenyl)-1,2,3,4-tetrahydro-β-carboline], the IC50 in series [1] (setting [4]) is 1.1 µg/mL (≈ 3.36 µM); in series [2] (setting [4]) it was 3 µg/mL (≈ 9.17 µM); in the series on P-388 (murine leukemia) (setting [5]), 1 µg/mL (≈ 3.06 µM); in series [3] (setting [5]), 2.1 µg/mL (≈ 6.42 µM).
The matching figures for `COc1ccc(C2NCCc3c2[nH]c2ccccc32)cc1OC` (stereo not drawn) [Compound 10, 1-(3′,4′-Dimethoxyphenyl)-1,2,3,4-tetrahydro-β-carboline]: above 50 µg/mL, above 50 µg/mL, 2.8 µg/mL (≈ 9.08 µM) and above 50 µg/mL.
On to “1-(2′-Fluorenyl)-3,4-dihydro-β-carboline [Compound 28]”, for which the “IC50, concentration inhibiting 50% of the growth of HT-29” value in series [1] (setting [4]) was found to be 0.7 µg/mL. Moreover, the “IC50, concentration inhibiting 50% of the growth of A-549” value in series [2] (setting [4]) was determined as 0.6 µg/mL. The “IC50, concentration inhibiting 50% of the growth of P-388” value in the series on P-388 (murine leukemia) (setting [5]) turned out to be 0.1 µg/mL. The “IC50, concentration inhibiting 50% of the growth of KB-16” value in series [3] (setting [5]) came to 1.4 µg/mL.
